What was measured:
[1] = test system: mammals; details: in vivo; cited from earlier work
[2] = test system: fish; details: in vivo; cited from earlier work
[3] = test system: birds; details: in vivo; cited from earlier work
[4] = Evaporation of liquid formulation from bottle with ceramic wick on diffuser; type: physicochemical; details: equal to 1 gram of mixture, diffuser 125°-150° C.
Description: PET plastic bottles were then each filled with 24 grams of the above formulation. A plastic insert and ceramic wick were then placed in the opening of the bottle and the bottle was screwed onto a common diffuser. The diffuser was operated at a temperature ranging from 125°-150° C. […] The remainder of the mixture in the bottle was then analyzed by HPLC. […] The bottle was then plugged off and stored for 12 additional hours. The bottle was again screwed onto a common diffuser, and the diffuser was operated at a temperature of 125°-150° C.

[5] = test system: mammals; details: cited from earlier work
[6] = Evaporation test of spinosad from impregnated paper mats on mat diffusers (HPLC); type: physicochemical; details: Example 1 mat, initial 80 mgs per mat; for Percentage of Spinosad Evaporated: 8 h
Description: Paper mats having dimensions of 35 mm (length)×21.5 mm (width)×2.5 mm (thickness) were then gradually impregnated with 0.84-1.70 grams of the above upper phase mixture (depending on its content in spinosad) so as to have approximately 80 mgs of pure spinosad per mat. The mats were left at a temperature of approximately 30° C. for 3 hours during which time most of the ethyl alcohol was evaporated. Next the mats were closed within foil comprising metallized polyethylene terepthalate PET 12 μm/adhesive/PET 35 μm. The mats were allowed to rest for 24 hours to allow for complete spread of the liquid material within the paper. Evaporation tests were then run as follows:
(§1) The foil was opened and a mat was removed. The mat was checked by HPLC to confirm its spinosad content. As was theoretically expected, 80 mgs of pure spinosad per mat were found. Four mats of this batch were then placed on common mat diffusers having a temperature ranging from 130° C. to 160° C. The amount of spinosad remaining on the mat was checked after each of 2, 4, and 8 hours of diffuser operation.
as §1, with “the content of spinosad.” for “its spinosad content.”, “11” for “80”, “mats” for “mats of this batch”, “of” for “of diffuser”
as §1, with “confirm the content of spinosad.” for “confirm its spinosad content.”, “expected, 10” for “expected, 80”, “mat was” for “mat were”, “mats” for “mats of this batch”, “of” for “of diffuser”

[7] = at 25° C.; cited from earlier work

For Spinosad, the toxicity to mammals [1] is listed as “relatively low”, the toxicity to fish [2] is listed as “only slightly toxic” and the toxicity to birds [3] is listed as “relatively low”. For the same compound, the “pure spinosad evaporated after 8 hours” value [4] was 20 mgs, the chronic toxicology findings [5] was “not carcinogenic, teratogenic, mutagenic, or neurotoxic” and the “Percentage of Spinosad Evaporated” value ([6]; diffuser temperature 130° C.) was 75%. For the same compound, the “Percentage of Spinosad Evaporated” value ([6]; diffuser temperature 140° C.) was 85%, the “Percentage of Spinosad Evaporated” value ([6]; diffuser temperature 160° C.) was 98% and the “Quantity of Spinosad Remained on mat after 8 h of operation” value (“Quantity of Spinosad Remained on mat” below) ([6]; diffuser temperature 130° C.) was 20 mgs. The “Quantity of Spinosad Remained on mat” value ([6]; diffuser temperature 140° C.) was 12 mgs and the “Quantity of Spinosad Remained on mat” value ([6]; diffuser temperature 160° C.) was 2 mgs.
For `CC[C@H]1CCC[C@H](O[C@H]2CC[C@H](N(C)C)[C@@H](C)O2)[C@@H](C)C(=O)C2=C[C@@H]3[C@@H](C=C[C@@H]4C[C@@H](O[C@@H]5O[C@@H](C)[C@H](OC)[C@@H](OC)[C@H]5OC)C[C@@H]34)[C@@H]2CC(=O)O1` [spinosyn A], the vapor pressure [7] is listed as 2.4 ×10^−10 mmHg.
